Assay results published in patent publication US20200054633A1 (priority 2017, published 2020).
“Also recorded” adds a separate entry of the source. Like-named read-outs stand apart in the source and are kept apart here.

Conditions: for subjects with nausea / subjects with treatment-emergent diarrhea: Safety Set
Excerpt: This study followed a randomized, double-blind, placebo-controlled, parallel-group, multicenter design.
Analysis set for safety: Safety Set included all subjects who received at least 1 dose of study drug.

O=C(O)[C@H]1C2CCC(CC2)[C@@H]1Nc1nc(-c2c[nH]c3ncc(F)cc23)ncc1F [Compound (1), Pimodivir]
TEAE: Hyperglycaemia (600 mg, OST placebo, N=74): 2 (2.7%) n (%) | TEAE: Hyperhidrosis (600 mg, OST placebo, N=74): 1 (1.4%) n (%) | TEAE: Hyperkalaemia (600 mg, OST placebo, N=74): 2 (2.7%) n (%) | TEAE: Hyperproteinaemia (600 mg, OST placebo, N=74): 0 n (%) | TEAE: Hypertension (600 mg, OST placebo, N=74): 0 n (%) | TEAE: Hyperuricaemia (600 mg, OST placebo, N=74): 0 n (%) | TEAE: Hypokalaemia (600 mg, OST placebo, N=74): 0 n (%) | TEAE: Hyponatraemia (600 mg, OST placebo, N=74): 0 n (%) | TEAE: Hypophosphataemia (600 mg, OST placebo, N=74): 0 n (%) | TEAE: Hypothermia (600 mg, OST placebo, N=74): 0 n (%) | TEAE: Increased appetite (600 mg, OST placebo, N=74): 1 (1.4%) n (%) | TEAE: Infections and infestations (600 mg, OST placebo, N=74): 1 (1.4%) n (%) | TEAE: Injury, poisoning and procedural complications (600 mg, OST placebo, N=74): 1 (1.4%) n (%) | TEAE: Insomnia (600 mg, OST placebo, N=74): 1 (1.4%) n (%) | TEAE: Investigations (600 mg, OST placebo, N=74): 10 (13.5%) n (%) | TEAE: Irritability (600 mg, OST placebo, N=74): 1 (1.4%) n (%) | TEAE: Labyrinthitis (600 mg, OST placebo, N=74): 0 n (%) | TEAE: Leukopenia (600 mg, OST placebo, N=74): 1 (1.4%) n (%) | TEAE: Lymph node pain (600 mg, OST placebo, N=74): 0 n (%) | TEAE: Lymphadenopathy (600 mg, OST placebo, N=74): 0 n (%) | TEAE: Lymphopenia (600 mg, OST placebo, N=74): 1 (1.4%) n (%) | TEAE: Metabolism and nutrition disorders (600 mg, OST placebo, N=74): 5 (6.8%) n (%) | TEAE: Micturition urgency (600 mg, OST placebo, N=74): 1 (1.4%) n (%) | TEAE: Middle ear effusion (600 mg, OST placebo, N=74): 0 n (%) | TEAE: Migraine (600 mg, OST placebo, N=74): 1 (1.4%) n (%) | TEAE: Muscle spasms (600 mg, OST placebo, N=74): 0 n (%) | TEAE: Musculoskeletal and connective tissue disorders (600 mg, OST placebo, N=74): 1 (1.4%) n (%) | TEAE: Musculoskeletal chest pain (600 mg, OST placebo, N=74): 0 n (%) | TEAE: Myalgia (600 mg, OST placebo, N=74): 0 n (%) | TEAE: Myocarditis (600 mg, OST placebo, N=74): 0 n (%) | TEAE: Nasal congestion (600 mg, OST placebo, N=74): 0 n (%) | TEAE: Nausea (600 mg, OST placebo, N=74): 3 (4.1%) n (%) | TEAE: Nephropathy (600 mg, OST placebo, N=74): 0 n (%) | TEAE: Nervous system disorders (600 mg, OST placebo, N=74): 4 (5.4%) n (%) | TEAE: Neutropenia (600 mg, OST placebo, N=74): 1 (1.4%) n (%) | TEAE: Neutrophil count decreased (600 mg, OST placebo, N=74): 4 (5.4%) n (%) | TEAE: Oedema peripheral (600 mg, OST placebo, N=74): 0 n (%) | TEAE: Oral herpes (600 mg, OST placebo, N=74): 1 (1.4%) n (%) | TEAE: Otitis media (600 mg, OST placebo, N=74): 0 n (%) | TEAE: Paraesthesia (600 mg, OST placebo, N=74): 0 n (%) | TEAE: Percussion test abnormal (600 mg, OST placebo, N=74): 0 n (%) | TEAE: Petechiae (600 mg, OST placebo, N=74): 0 n (%) | TEAE: Pharyngitis streptococcal (600 mg, OST placebo, N=74): 0 n (%) | TEAE: Pneumonia chlamydial (600 mg, OST placebo, N=74): 0 n (%) | TEAE: Protein urine (600 mg, OST placebo, N=74): 0 n (%) | TEAE: Protein urine present (600 mg, OST placebo, N=74): 0 n (%) | TEAE: Proteinuria (600 mg, OST placebo, N=74): 0 n (%) | TEAE: Pruritus (600 mg, OST placebo, N=74): 0 n (%) | TEAE: Psychiatric disorders (600 mg, OST placebo, N=74): 3 (4.1%) n (%) | TEAE: Rash (600 mg, OST placebo, N=74): 0 n (%) | TEAE: Red blood cells urine (600 mg, OST placebo, N=74): 0 n (%) | TEAE: Renal and urinary disorders (600 mg, OST placebo, N=74): 1 (1.4%) n (%) | TEAE: Renal failure (600 mg, OST placebo, N=74): 0 n (%) | TEAE: Renal failure chronic (600 mg, OST placebo, N=74): 0 n (%) | TEAE: Renal impairment (600 mg, OST placebo, N=74): 0 n (%) | TEAE: Respiratory, thoracic and mediastinal disorders (600 mg, OST placebo, N=74): 2 (2.7%) n (%) | TEAE: Rhonchi (600 mg, OST placebo, N=74): 0 n (%) | TEAE: Sensation of foreign body (600 mg, OST placebo, N=74): 0 n (%) | TEAE: Sinus bradycardia (600 mg, OST placebo, N=74): 0 n (%) | TEAE: Sinus congestion (600 mg, OST placebo, N=74): 0 n (%) | TEAE: Sinus tachycardia (600 mg, OST placebo, N=74): 0 n (%) | TEAE: Sinusitis (600 mg, OST placebo, N=74): 0 n (%) | TEAE: Skin and subcutaneous tissue disorders (600 mg, OST placebo, N=74): 2 (2.7%) n (%) | TEAE: Sleep disorder (600 mg, OST placebo, N=74): 1 (1.4%) n (%) | TEAE: Sleep terror (600 mg, OST placebo, N=74): 0 n (%) | TEAE: Syncope (600 mg, OST placebo, N=74): 0 n (%) | TEAE: Tachycardia (600 mg, OST placebo, N=74): 0 n (%) | TEAE: Thrombocytopenia (600 mg, OST placebo, N=74): 0 n (%) | TEAE: Tinnitus (600 mg, OST placebo, N=74): 0 n (%) | TEAE: Tongue discolouration (600 mg, OST placebo, N=74): 0 n (%) | TEAE: Tremor (600 mg, OST placebo, N=74): 0 n (%) | TEAE: Upper respiratory tract infection (600 mg, OST placebo, N=74): 0 n (%) | TEAE: Urinary tract infection (600 mg, OST placebo, N=74): 0 n (%) | TEAE: Urine ketone body present (600 mg, OST placebo, N=74): 0 n (%) | TEAE: Vascular disorders (600 mg, OST placebo, N=74): 0 n (%) | TEAE: Vertigo (600 mg, OST placebo, N=74): 0 n (%) | TEAE: Vomiting (600 mg, OST placebo, N=74): 3 (4.1%) n (%) | TEAE: Wheezing (600 mg, OST placebo, N=74): 1 (1.4%) n (%) | TEAE: White blood cell count decreased (600 mg, OST placebo, N=74): 1 (1.4%) n (%) | Worst grade 1 or 2 TEAE (600 mg, OST placebo, N=74): 34 (45.9%) | Worst grade 3 TEAE (600 mg, OST placebo, N=74): 5 (6.8%) | Worst grade 3 or 4 TEAE (600 mg, OST placebo, N=74): 5 (6.8%) | Worst grade 4 TEAE (600 mg, OST placebo, N=74): 0 | subjects with nausea (Compound (1) 300 mg bid): 4.1% | subjects with treatment-emergent diarrhea (Compound (1) 300 mg bid): 6.8% | severe events considered possibly related to trial medication (Compound (1) 600 mg bid): blood creatine phosphokinase increased and diarrhea | subjects with nausea (Compound (1) 600 mg bid): 4.1% | subjects with treatment-emergent diarrhea (Compound (1) 600 mg bid): 27.0% | treatment-emergent serious adverse event (SAE) (Compound (1) 600 mg bid, one subject, doubtfully related according to the investigator): an SAE of moderate increased alanine aminotransferase; also recorded: a moderate treatment-emergent AE (TEAE) of increased alanine aminotransferase | overall safety and tolerability (clinical study, 300 or 600 mg bid): generally safe and well tolerated
